# Tests used:
# dopamine receptor = test: Dopamine Receptor Binding Studies ([^3 H]spiroperidol displacement, rat striatal tissue); conditions: [^3 H]spiroperidol 2 nM
# Experimental: A method of Seeman, et al., Proc. Natl. Acad. Sci. U.S.A., 1975, 72, 4376, was employed using [^3 H]spiroperidol (2 nM) and rat striatal tissue.
# Compound 11 was also evaluated for its ability to displace [^3 H] spiroperidol (2nm) from rat striatal tissue.
# [1] = test system: cat cardioaccelerator nerve; test: Cat Cardioaccelerator Nerve Assay (in vivo peripheral dopamine agonist activity); conditions: for % inhibn of nerve stimulation: N=3; for peripheral dopamine agonist activity: in vivo, summary of Table I
# Experimental: Cats were anesthetized by injection of pentobarbital sodium (30 mg/kg) into the thoracic cavity, and the surgical and experimental procedure was according to the procedure described in Cannon, J. G., et al. in J. Med. Chem. 1984, 27, 186. Experimental compounds were administered intravenously in doses of 0.33 log intervals.
# The compounds 11, 15, and 18 were evaluated for in vivo dopamine agonist activity in the cat cardioaccelerator nerve assay.
# nigrostriatal projection = test: Rotation Assay (circling behavior, 6-hydroxydopamine unilateral denervation of the nigrostriatal projection); type: in vivo, Male Sprague-Dawley rats; conditions: for antagonism of apomorphine-induced rotations in rats: apomorphine 0.25 mg/kg, compound 4.0 mg/kg; for rotational behavior in rats with unilateral lesions of the nigrostriatal projection: dose 4.0 mg/kg
# Experimental: Male Sprague-Dawley rats with 6-hydroxydopamine unilateral denervation of the nigrostriatal projection were used to test compounds for circling behavior according to the procedure of Cannon, et al. in J. Med. Chem 1984, 27, 186. Compounds were administered at a dose of 4.0 mg/kg and were also evaluated for their ability to antagonize apomorphine (0.25 mg/kg) induced rotations.
# Finally, the compounds 11, 15, and 18 were evaluated for in vivo rat rotation assay.
Compound,ability to displace [^3 H]spiroperidol from rat striatal tissue (dopamine receptor),"% inhibn of nerve stimulation ([1]; dose 0.035, iv) [%]","% inhibn of nerve stimulation ([1]; dose 0.105, iv) [%]","% inhibn of nerve stimulation ([1]; dose 0.315, iv) [%]",peripheral dopamine agonist activity [1],antagonism of apomorphine-induced rotations in rats (nigrostriatal projection),rotational behavior in rats with unilateral lesions of the nigrostriatal projection (nigrostriatal projection),"arterial pressure ([1]; dose 3.5, iv)","heart rate ([1]; dose 3.5, iv)","% inhibn of nerve stimulation ([1]; dose 3.5, iv) [%]","% inhibn of nerve stimulation ([1]; dose 0.46, iv) [%]","heart rate ([1]; dose 1.38, iv)","% inhibn of nerve stimulation ([1]; dose 1.38, iv) [%]","arterial pressure ([1]; dose 4.60, iv)","% inhibn of nerve stimulation ([1]; dose 4.60, iv) [%]"
"CN1CCCC2(OCCO2)C1Cc1cccc2[nH]ccc12 (stereo not drawn) [Compound 11, 6-(4-Indolylmethyl)-7-methyl-1,4-dioxa-7-azaspiro[4.5]decane]",inactive,26 ± 19,48 ± 21,79 ± 11,effective agonist activity,nor did they antagonize apomorphine-induced rotations,None of the compounds screened produced rotational behavior,–,–,–,–,–,–,–,–
"CN1CCCC2(OCCO2)C1Cc1c[nH]c2ccccc12 (stereo not drawn) [Compound 15, 6-(3-Indolylmethyl)-7-methyl-1,4-dioxa-7-azaspiro[4.5]decane]",–,–,–,–,effective agonist activity,nor did they antagonize apomorphine-induced rotations,None of the compounds screened produced rotational behavior,Increased arterial pressure at this dose,Increased heart rate slightly at this dose,32 ± 17.4,–,–,–,–,–
"CN1CCCC2(OCCO2)C1Cc1ccccc1 (stereo not drawn) [Compound 18, 6-Benzyl-7-methyl-1,4-dioxa-7-azaspiro[4.5]decane]",–,–,–,–,effective agonist activity,nor did they antagonize apomorphine-induced rotations,None of the compounds screened produced rotational behavior,–,–,–,22 ± 11.7,Increased heart rate slightly at this dose,18 ± 2.0,Increased arterial pressure at this dose,36 ± 12.3

# From US4973593A, “Novel compounds for the treatment of hypertension” (Research Corporation Technologies, Inc., priority 1987, dated 1990)
